{"source": "patent US9138495B2", "about": "“Conjugates and their uses in molecular imaging” (King's College London, priority 2010, dated 2015)", "key": {"serum transferrin": {"target": "T1, serum transferrin (Homo sapiens, UniProt P02787)", "T1 construct": "from tissue; host or cells: human blood serum", "T1 sequence (P02787 20-698)": "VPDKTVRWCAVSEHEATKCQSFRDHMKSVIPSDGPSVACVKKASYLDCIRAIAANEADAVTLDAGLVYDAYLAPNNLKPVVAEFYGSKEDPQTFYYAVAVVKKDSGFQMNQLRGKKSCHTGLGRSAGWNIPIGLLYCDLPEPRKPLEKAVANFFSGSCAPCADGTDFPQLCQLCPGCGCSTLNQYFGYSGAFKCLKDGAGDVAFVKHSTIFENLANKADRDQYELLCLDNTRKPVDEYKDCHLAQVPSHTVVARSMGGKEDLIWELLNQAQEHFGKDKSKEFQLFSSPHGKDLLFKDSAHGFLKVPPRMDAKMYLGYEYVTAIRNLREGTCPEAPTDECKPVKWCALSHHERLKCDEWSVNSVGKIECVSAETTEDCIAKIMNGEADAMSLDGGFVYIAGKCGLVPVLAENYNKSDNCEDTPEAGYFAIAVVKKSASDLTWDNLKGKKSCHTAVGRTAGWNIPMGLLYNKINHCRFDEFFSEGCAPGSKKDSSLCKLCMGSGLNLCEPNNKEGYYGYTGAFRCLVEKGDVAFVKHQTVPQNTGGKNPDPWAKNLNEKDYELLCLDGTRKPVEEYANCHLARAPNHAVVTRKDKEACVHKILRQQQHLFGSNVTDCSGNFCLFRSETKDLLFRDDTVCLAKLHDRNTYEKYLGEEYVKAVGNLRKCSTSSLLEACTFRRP", "experiment": "Labelling of CP256 with ^68Ga in serum (PD10, ethanol precipitation, ITLC)", "format": "in vitro ADME", "method": "Two different radiolabelling techniques were used. In method 1, 100 μl of chelator (CP-256, 2.35 mM, 1.17 mM, 589 μM, 117 μM, 23 μM and 11.7 μM; pH 7-7.5 in PBS/bicarbonate buffer) was mixed with 300 μl of human serum. After 10-15 minutes 20 μl of 68Ga eluate was added and the solution incubated at 37° C. in a plastic tube. In the second method, 20 μl of ^68Ga solution was added to the 300 μl of human blood serum. After 15-20 minutes 100 μl of chelator (Cp-256) was added. At each time point 50 μl of the incubation solution was applied to the top of the PD-10 column and eluted the column with PBS collecting 0.5 ml fractions. Fractions were counted in a gamma counter (Perkin Elmer wizard 31480 automatic gamma counter, 10 seconds per sample). The incubated solution were also analysed by ethanol precipitation, counting the pellet and supernatant after centrifugation to determine protein bound ^68Ga, and the centrifuged supernatants were analysed by ITLC-SG with 0.1 M sodium citrate as mobile phase. In these conditions “free” ^68Ga migrates with the solvent front (Rf=1) and ^68Ga-CP256 remains at the origin (Rf=0)."}, "sialoadhesin": {"target": "T2, sialoadhesin (Mus musculus, UniProt Q62230)", "T2 construct": "Sialoadhesin is found on the surface of macrophages; endogenous in cells; host or cells: macrophages (spleen, liver) of living wild-type C57Bl/6 mice", "T2 sequence (Q62230 20-1695)": "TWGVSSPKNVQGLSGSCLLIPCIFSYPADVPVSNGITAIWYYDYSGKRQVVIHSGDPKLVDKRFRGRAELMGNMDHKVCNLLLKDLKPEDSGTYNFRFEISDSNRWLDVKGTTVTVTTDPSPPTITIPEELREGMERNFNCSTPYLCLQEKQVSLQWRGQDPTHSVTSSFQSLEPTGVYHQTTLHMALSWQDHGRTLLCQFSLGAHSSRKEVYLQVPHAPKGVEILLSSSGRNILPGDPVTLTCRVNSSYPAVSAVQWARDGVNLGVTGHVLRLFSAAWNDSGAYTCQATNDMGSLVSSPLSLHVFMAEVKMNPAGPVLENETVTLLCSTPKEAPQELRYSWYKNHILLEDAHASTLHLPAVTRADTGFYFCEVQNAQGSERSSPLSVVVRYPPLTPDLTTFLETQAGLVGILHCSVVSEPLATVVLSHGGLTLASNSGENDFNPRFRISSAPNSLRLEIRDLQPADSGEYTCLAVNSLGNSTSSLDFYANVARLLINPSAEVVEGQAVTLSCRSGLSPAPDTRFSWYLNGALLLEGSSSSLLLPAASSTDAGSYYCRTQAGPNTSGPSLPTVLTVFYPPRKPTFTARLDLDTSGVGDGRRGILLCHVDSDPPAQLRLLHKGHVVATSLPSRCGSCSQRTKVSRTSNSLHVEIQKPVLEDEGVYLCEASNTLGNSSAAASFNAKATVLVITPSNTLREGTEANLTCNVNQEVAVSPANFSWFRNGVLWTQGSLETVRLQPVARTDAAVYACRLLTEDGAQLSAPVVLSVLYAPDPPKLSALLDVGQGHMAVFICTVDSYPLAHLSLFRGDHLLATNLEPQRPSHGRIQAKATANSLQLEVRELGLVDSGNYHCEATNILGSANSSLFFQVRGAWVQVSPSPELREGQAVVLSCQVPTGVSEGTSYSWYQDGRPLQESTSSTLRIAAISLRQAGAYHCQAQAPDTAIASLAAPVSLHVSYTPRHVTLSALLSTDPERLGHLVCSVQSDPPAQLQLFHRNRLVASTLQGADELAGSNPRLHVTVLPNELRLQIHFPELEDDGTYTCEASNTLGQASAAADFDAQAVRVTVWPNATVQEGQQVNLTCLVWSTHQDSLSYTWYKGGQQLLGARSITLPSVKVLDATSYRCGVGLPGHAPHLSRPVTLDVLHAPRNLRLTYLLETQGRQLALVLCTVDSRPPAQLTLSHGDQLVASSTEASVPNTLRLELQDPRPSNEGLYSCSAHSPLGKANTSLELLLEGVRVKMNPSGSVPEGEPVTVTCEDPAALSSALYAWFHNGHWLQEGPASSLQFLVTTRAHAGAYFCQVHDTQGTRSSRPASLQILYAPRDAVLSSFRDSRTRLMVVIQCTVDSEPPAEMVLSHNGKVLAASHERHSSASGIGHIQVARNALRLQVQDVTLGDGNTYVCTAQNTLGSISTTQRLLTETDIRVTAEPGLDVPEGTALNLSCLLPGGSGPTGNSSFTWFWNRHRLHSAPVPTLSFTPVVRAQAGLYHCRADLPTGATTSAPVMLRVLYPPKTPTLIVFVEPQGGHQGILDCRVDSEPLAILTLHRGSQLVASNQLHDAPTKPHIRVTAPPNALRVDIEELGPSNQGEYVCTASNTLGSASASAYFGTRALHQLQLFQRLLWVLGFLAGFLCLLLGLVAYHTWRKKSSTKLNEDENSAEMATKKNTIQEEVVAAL", "format": "in vivo", "details": "group 2: ^67Ga citrate 5 min after unconjugated SER4; wild type mice, 3 h", "method": "CP256-SER4 was labelled with ^67Ga to give ^67Ga-CP256-SER4. Groups of wild type mice were injected with either directly labelled Ga-CP256-SER4 (group 1), or SER4 (unconjugated) followed 5 min later by ^67Ga citrate (group 2) or CP256-SER4 followed by ^67Ga citrate.\nThe same experiments were also performed using sialoadhesin knockout mice. All animals were killed after 3 h and biodistribution of radioactivity determined.\n^67Gallium radiolabelling was performed by addition of 45 μL ^67Ga citrate (0.6-0.75 MBq) to 90 μL (90 μg) CP256-SER4. Radiolabelling was allowed to proceed for 10 min before dilution to 350 μL with phosphate buffered saline. Injections containing 25 μg of labelled antibody were drawn up. Analysis of the radiolabelled antibody was performed by size exclusion HPLC using 0.1 M phosphate buffer containing 2 mM EDTA as the mobile phase to ensure good radiolabelling had been achieved prior to injection into animals.\nGroups of wild type mice (C57Bl/6, male 8-10 weeks, n=2 to 3 per group) were injected with either directly labelled ^67Ga-CP256-SER4 (group 1), or SER4 (unconjugated) followed 5 min later by ^67Ga citrate (group 2) or CP256-SER4 followed by ^67Ga citrate. […] All animals were killed after 3 h and biodistribution of radioactivity determined by explanting tissues and weighing and counting."}, "human apo-transferrin": {"target": "T3, human apo-transferrin (Homo sapiens, UniProt P02787)", "T3 construct": "purchased Sigma Aldrich T5391-10MG", "T3 sequence (P02787 20-698)": "as the sequence (P02787 20-698) above", "experiment": "Tracer stability in apo-transferrin using 30 kDa MWCO filters", "format": "in vitro ADME", "details": "tracer radiolabelled at 100 μM ligand, 37° C.", "method": "50 mM TRIS-HCl buffer (pH 7.5) was prepared by dilution of a 1 M stock solution. Sodium bicarbonate was added to a concentration of 25 mM. A 2.5 mg/ml (32 μM) solution of apo-transferrin was prepared in this buffer. Solutions of all tracers were radiolabelled at a concentration of 100 μM. A 10 μM CP256 solution was also prepared. See table 9 for radiolabelling conditions. A 10 μl aliquot of each radiolabelled tracer was added to 30 μl of an appropriate buffer to neutralise the pH to between 7 and 7.5. This buffer was 2 M TRIS-HCl (pH 7.5) in the case of those tracers labelled in the acetate buffer. For preparations of ^67Ga-CP256 and ^67Ga-Citrate the buffer was PBS. Details can be seen in Table 9. Apo-transferrin solution (200 μl) in a plastic microcentrifuge tube was incubated at 37° C. in a metal heating block. To this was added 20 μl of each pH-neutralised tracer. 20 μl of each tracer was also incubated in a reference buffer (containing no apo-transferrin) of 50 mM TRIS-HCl containing 25 mM sodium bicarbonate. […] The filter section of the tube was removed and counted separately from the tube in a gamma counter. Percentage binding of the radioactivity to the MWCO filter was calculated using the following equation: Counts from filter section/Counts from filter section+counts from tube section×100 The analysis was done in triplicate after 4 hours for the apo-transferrin incubations. […]"}}, "data": [{"smiles": "CC(=O)NC(CCC(=O)NCc1c(O)c(=O)cc(C)n1C)(CCC(=O)NCc1c(O)c(=O)cc(C)n1C)CCC(=O)NCc1c(O)c(=O)cc(C)n1C.Cl.Cl.Cl", "note": "[CP256, 4-Acetylamino-4-{2-[(3-hydroxy-1,6-dimethyl-4-oxo-1,4-dihydro-pyridin-2-ylmethyl)-carbamoyl]-ethyl}-heptanedioic acid bis-[(3-hydroxy-1,6-dimethyl-4-oxo-1,4-dihydro-pyridin-2-ylmethyl)-amide]tris hydrochloride salt]", "values": [{"measurement": "CP256 sample concentration giving a chromatogram similar to that of ^68Ga-CP256 in serum", "setting": "serum transferrin; ^68Ga chloride added to mixture of CP256 and human serum", "result": "≥ 23", "unit": "µM"}, {"measurement": "chelation of ^68Ga in competition with serum transferrin", "setting": "serum transferrin; ^68Ga chloride added to mixture of CP256 and human serum, 37° C.", "result": "competes effectively with serum transferrin"}, {"measurement": "extraction of ^68Ga from ^68Ga-transferrin complex", "setting": "serum transferrin; ^68Ga equilibrated first with serum, then CP256 added", "result": "able to extract ^68Ga from ^68Ga-transferrin complex"}, {"measurement": "free ^68Ga (ITLC of supernatants)", "setting": "serum transferrin; serum containing CP256", "result": "no detectable free ^68Ga"}, {"measurement": "protein bound ^68Ga (ethanol precipitation)", "setting": "serum transferrin; serum containing CP256", "result": "no measurable protein binding"}]}, {"smiles": "O=C([O-])CC(O)(CC(=O)[O-])C(=O)[O-].[67Ga+3]", "note": "[^67Ga-CITRATE]", "values": [{"measurement": "activity in circulating blood", "setting": "sialoadhesin", "result": 7, "unit": "% ID/g"}, {"measurement": "% radioactivity bound to MWCO filter, in reference buffer", "setting": "human apo-transferrin; 50 mM TRIS-HCl, 25 mM bicarbonate, no apo-transferrin", "result": "1.7 ± 0.5", "unit": "%"}, {"measurement": "% radioactivity bound to MWCO filter, apo-transferrin incubation, after 4 hours", "setting": "human apo-transferrin; apo-transferrin, 4 hours", "result": "73.0 ± 4.1", "unit": "%"}]}]}
